What was measured:
LNCa = assay: Cytotoxicity in vitro (MTT), prostate cancer cell line LNCa; type: cell-based, human
Experimental: (§1) In general, Anti-bradykinin activity was determined by the classical guinea pig ileum assay and on Chinese hamster ovary (CHO) cells expressing cloned human bradykinin B2 receptors. Anti-tumor activity was determined on cultured human cancer cell lines using the standard tetrazolium (MTT) assay.
(§2) Cell growth and survival were measured by a rapid colorimetric assay based on the tetrazolium salt MTT (3-(4,5-dimethylthiazol-2-yl)-2,5-diphenyl tetrazolium bromide) (Mosmann, J Immunol. Methods 65: 55–63, 1983, with minor modifications). Briefly, 1,000 normal lung fibroblasts or normal epithelial BEAS-2B cells, 1,000 or 5,000 viable non-SCLC cells or 10,000 viable SCLC cells were plated in 100 μL of growth medium in 96-well flat-bottomed microtiter plates. Cells were incubated overnight to allow recovery. Compounds to be tested were added to the cells in triplicate in a range of concentrations and the cells were incubated at 37° C., 5% CO2, with 100% humidity. Control cells were treated in the same way without antagonists. […] Plates were incubated for 4 days, allowing sufficient time for cell replication and compound-induced cell death to occur. On day 5, 25 μL of a 2 mg/mL solution of MTT (Sigma) dissolved in RMPI-1640was added to each well. The plate was incubated for 4 h at 37° C. The supernate was removed and the blue formazan complex was dissolved by adding 100 μL of 0.02 N HCl in 75% isopropanol to all wells. Absorbance was immediately determined using a scanning multiwell plate reader. B9870 caused 50% cell death at a concentration of 0.15 μM under these conditions.

[1] = target: T1, cloned human bradykinin B2 receptors (Homo sapiens, UniProt P30411); assay: Anti-bradykinin activity on cloned human B2 receptors (CHO cells, Cytosensor microphysiometer); type: cell-based; conditions: Table 1; higher numbers indicate higher potency
T1 sequence (P30411 1-391): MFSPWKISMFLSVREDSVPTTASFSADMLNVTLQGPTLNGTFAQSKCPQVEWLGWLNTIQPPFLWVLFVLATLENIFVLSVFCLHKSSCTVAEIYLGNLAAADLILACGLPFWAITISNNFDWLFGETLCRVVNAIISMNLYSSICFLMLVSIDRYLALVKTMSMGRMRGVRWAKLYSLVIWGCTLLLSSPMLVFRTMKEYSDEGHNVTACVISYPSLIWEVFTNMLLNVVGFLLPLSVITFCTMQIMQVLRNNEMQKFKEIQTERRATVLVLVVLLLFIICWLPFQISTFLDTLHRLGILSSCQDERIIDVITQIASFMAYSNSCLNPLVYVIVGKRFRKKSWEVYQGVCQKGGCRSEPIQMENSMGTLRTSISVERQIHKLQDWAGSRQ
Experimental: as §1
Chinese hamster ovary cells containing cloned and expressed human bradykinin B2 receptors were grown in cell cups of the Cytosensor microphysiometer in Ham's F-12 medium supplemented with sodium pyruvate and 10% FBS (Gibco 11765-054). For assay the cells were transferred to Ham's F-12 without bicarbonate or serum (Gibco 21700-075) and placed in the Cytosensor. Concentration-response curves were constructed to bradykinin in the presence or absence of new compounds.

SCLC strain SHP-77 [2] = assay: Colorimetric tetrazolium (MTT) assay for cell survival, SCLC strain SHP-77; type: cell-based, human; conditions: for ED50 for cytotoxic activity, SCLC SHP-77: Table 5, included for comparison
Procedure, shortened: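 MTT assay: cells seeded overnight, treated in triplicate across a concentration range for 4 days at 37 °C, 5% CO2. On day 5, MTT was added for 4 h; formazan was dissolved in acidified isopropanol and absorbance read.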

DU14 = assay: Cytotoxicity in vitro (MTT), prostate cancer cell line DU14; type: cell-based, human
Experimental: as §1, §2

PPC1 = assay: Cytotoxicity in vitro (MTT), prostate cancer cell line PPC1; type: cell-based, human
Experimental: as §1, §2

TSU = assay: Cytotoxicity in vitro (MTT), prostate cancer cell line TSU; type: cell-based, human
Experimental: as §1, §2

PC-3 = assay: Cytotoxicity in vitro (MTT), prostate cancer cell line PC-3; type: cell-based, human
Experimental: as §1, §2

[3] = system: bradykinin response of isolated guinea pig ileum; assay: Anti-bradykinin activity on isolated guinea pig ileum; conditions: higher numbers indicate higher potency
Procedure, shortened: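 Terminal ileum segments (25 mm) from overnight-fasted male Hartley guinea pigs, in Krebs' solution gassed with 95% O2/5% CO2 under 1 g tension, equilibrated 1 h. Bradykinin concentration-effect curves constructed without and with test compounds.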

SCLC strain SHP-77 [4] = assay: Inhibition of tumor growth in vivo in nude mice, SCLC strain SHP-77
Experimental: Representative peptide and non-peptide compounds having high in vitro cytotoxic activity were tested against implanted tumors in vivo. Athymic nude mice were implanted subcutaneously with either single cell suspensions (2 million SCLC cells or 1 million NSCLC cells) or with small fragments (3×3 mm) of tumors minced from previously grown nude mouse heterotransplants. On the seventh day after tumor implantation groups of 5 mice bearing implants were injected intraperitoneally daily with the compounds being tested at 1, 5, or 10 mg/kg/day; control animals were injected with an equal volume of isotonic saline. Tumor size was measured with a caliper three times per week. Tumor volume was calculated by the formula: Volume (cc)=π×(length)×(width)^2/6

Atmp-Igl-Pac-α-Sbl-Lys-B9430 [M590]
ED50 for cytotoxic activity, LNCa (LNCa): 7000 nM | HUMAN: pA2 for bradykinin antagonist potency on cloned human B2 receptors [1]: Inact | MTT: ED50 for killing of SCLC strain SHP-77 in vitro (SCLC strain SHP-77 [2]; Table 1, SHP-77, MTT, 4 days): 4500 nM | ED50 for cytotoxic activity, SCLC SHP-77 (SCLC strain SHP-77 [2]): 4500 nM | ED50 for cytotoxic activity, DU14 (DU14): 10 nM | ED50 for cytotoxic activity, PPC1 (PPC1): 12000 nM | ED50 for cytotoxic activity, TSU (TSU): 7000 nM | ED50 for cytotoxic activity, PC-3 (PC-3): 6300 nM | GPI: pA2 for bradykinin antagonist activity on isolated guinea pig ileum ([3]; Table 1): 7.5

CC1(C)CC(NC(=O)[C@H](Cc2ccc(OCc3c(Cl)cccc3Cl)cc2)NC(=O)/C=C/c2c(F)c(F)c(F)c(F)c2F)CC(C)(C)N1 [M570, F5c-OC2Y-Atmp]
ED50 for cytotoxic activity, LNCa (LNCa): 3000 nM | MTT: ED50 for killing of SCLC strain SHP-77 in vitro (SCLC strain SHP-77 [2]; SCLC strain SHP-77 in vitro): 1800 nM | ED50 for cytotoxic activity, SCLC SHP-77 (SCLC strain SHP-77 [2]): 1800 nM | ED50 for cytotoxic activity, DU14 (DU14): 1200 nM | inhibition of growth in vivo of SCLC strain SHP-77 (SCLC strain SHP-77 [4]; figure legends, nude mice, i.p. daily): inhibition of growth | ED50 for cytotoxic activity, PPC1 (PPC1): 3000 nM | ED50 for cytotoxic activity, TSU (TSU): 2800 nM | ED50 for cytotoxic activity, PC-3 (PC-3): 1600 nM | GPI: pA2 for bradykinin antagonist activity on isolated guinea pig ileum ([3]; isolated guinea pig ileum, pD2 of bradykinin is 7.4): 5.6

SUIM-(DArg-Arg-Pro-Hyp-Gly-Igl-Ser-DIgl-Oic-Arg) [B9870-2, reference compound]
ED50 for cytotoxic activity, LNCa (LNCa): 3700 nM | EC50 (SCLC strain SHP-77 [2]; MTT assay, text of Example XIX, read-out: concentration causing 50% cell death): 150 nM | MTT: ED50 for killing of SCLC strain SHP-77 in vitro (SCLC strain SHP-77 [2]; Table 1, SHP-77, MTT, 4 days): 150 nM | ED50 for cytotoxic activity, SCLC SHP-77 (SCLC strain SHP-77 [2]): 150 nM | ED50 for cytotoxic activity, DU14 (DU14): 80 nM | inhibition of growth of the SCLC line SHP-77 (SCLC strain SHP-77 [4]; dose of 5 mg/kg/day): marked inhibition of growth | ED50 for cytotoxic activity, PPC1 (PPC1): 4300 nM | ED50 for cytotoxic activity, TSU (TSU): 6500 nM | ED50 for cytotoxic activity, PC-3 (PC-3): 3200 nM | GPI: pA2 for bradykinin antagonist activity on isolated guinea pig ileum ([3]; Table 1): 8.4
